From US11739098B2 (BRISTOL-MYERS SQUIBB COMPANY, priority 2017, dated 2023)

Assays:
Format in all cases: cell-based
human TLR7 = target: T1, human TLR7 (Homo sapiens, UniProt Q9NYK1); assay: TLR7 inhibition reporter assay (HEK-Blue cells, SEAP reporter, gardiquimod stimulation); conditions: HEK-Blue cells overexpressing human TLR7, SEAP reporter, gardiquimod 7.5 μM
T1 construct: host or cells: HEK-Blue cells (HEK293-derived reporter line)
T1 sequence (Q9NYK1 27-1049): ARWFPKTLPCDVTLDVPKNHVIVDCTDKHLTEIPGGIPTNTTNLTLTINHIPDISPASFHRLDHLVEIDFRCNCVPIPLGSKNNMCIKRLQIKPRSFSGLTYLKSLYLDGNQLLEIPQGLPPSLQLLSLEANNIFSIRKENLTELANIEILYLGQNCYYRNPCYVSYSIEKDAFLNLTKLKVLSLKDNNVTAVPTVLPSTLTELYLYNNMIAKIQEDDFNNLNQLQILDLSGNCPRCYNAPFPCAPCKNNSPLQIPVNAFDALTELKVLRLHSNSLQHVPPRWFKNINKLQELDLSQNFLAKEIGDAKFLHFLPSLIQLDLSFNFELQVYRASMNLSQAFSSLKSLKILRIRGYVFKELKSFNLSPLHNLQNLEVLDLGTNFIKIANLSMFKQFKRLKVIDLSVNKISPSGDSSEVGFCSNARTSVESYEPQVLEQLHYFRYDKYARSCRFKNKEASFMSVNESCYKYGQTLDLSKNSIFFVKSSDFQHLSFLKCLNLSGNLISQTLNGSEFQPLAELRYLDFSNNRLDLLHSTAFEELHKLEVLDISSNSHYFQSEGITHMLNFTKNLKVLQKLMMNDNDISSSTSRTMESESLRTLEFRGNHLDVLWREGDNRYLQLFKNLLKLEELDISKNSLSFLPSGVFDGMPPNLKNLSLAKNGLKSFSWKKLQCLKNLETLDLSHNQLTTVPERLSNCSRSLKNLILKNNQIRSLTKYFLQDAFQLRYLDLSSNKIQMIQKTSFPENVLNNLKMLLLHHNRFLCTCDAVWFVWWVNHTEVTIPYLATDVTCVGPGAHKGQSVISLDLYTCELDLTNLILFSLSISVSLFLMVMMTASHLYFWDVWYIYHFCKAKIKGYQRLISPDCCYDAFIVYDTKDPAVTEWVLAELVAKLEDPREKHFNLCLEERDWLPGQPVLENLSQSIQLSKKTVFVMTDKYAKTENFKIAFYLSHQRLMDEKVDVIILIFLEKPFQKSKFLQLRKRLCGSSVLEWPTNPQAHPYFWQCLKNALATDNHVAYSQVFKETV
How it was run: (§1)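 HEK-Blue cells overexpressing human TLR7, TLR8 or TLR9 (NF-κB/AP-1-driven SEAP) pre-treated 30 min at room temperature with compound (0.05 nM–50 μM), then stimulated with gardiquimod 7.5 μM (TLR7), R848 15.9 μM (TLR8) or ODN2006 5 nM (TLR9). SEAP read colorimetrically after 22 h at 37 °C; % inhibition calculated.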

human TLR8 = target: T2, human TLR8 (Homo sapiens, UniProt Q9NR97); assay: TLR8 inhibition reporter assay (HEK-Blue cells, SEAP reporter, R848 stimulation); conditions: HEK-Blue cells overexpressing human TLR8, SEAP reporter, R848 15.9 μM
T2 construct: host or cells: HEK-Blue cells (HEK293-derived reporter line)
T2 sequence (Q9NR97 27-1041): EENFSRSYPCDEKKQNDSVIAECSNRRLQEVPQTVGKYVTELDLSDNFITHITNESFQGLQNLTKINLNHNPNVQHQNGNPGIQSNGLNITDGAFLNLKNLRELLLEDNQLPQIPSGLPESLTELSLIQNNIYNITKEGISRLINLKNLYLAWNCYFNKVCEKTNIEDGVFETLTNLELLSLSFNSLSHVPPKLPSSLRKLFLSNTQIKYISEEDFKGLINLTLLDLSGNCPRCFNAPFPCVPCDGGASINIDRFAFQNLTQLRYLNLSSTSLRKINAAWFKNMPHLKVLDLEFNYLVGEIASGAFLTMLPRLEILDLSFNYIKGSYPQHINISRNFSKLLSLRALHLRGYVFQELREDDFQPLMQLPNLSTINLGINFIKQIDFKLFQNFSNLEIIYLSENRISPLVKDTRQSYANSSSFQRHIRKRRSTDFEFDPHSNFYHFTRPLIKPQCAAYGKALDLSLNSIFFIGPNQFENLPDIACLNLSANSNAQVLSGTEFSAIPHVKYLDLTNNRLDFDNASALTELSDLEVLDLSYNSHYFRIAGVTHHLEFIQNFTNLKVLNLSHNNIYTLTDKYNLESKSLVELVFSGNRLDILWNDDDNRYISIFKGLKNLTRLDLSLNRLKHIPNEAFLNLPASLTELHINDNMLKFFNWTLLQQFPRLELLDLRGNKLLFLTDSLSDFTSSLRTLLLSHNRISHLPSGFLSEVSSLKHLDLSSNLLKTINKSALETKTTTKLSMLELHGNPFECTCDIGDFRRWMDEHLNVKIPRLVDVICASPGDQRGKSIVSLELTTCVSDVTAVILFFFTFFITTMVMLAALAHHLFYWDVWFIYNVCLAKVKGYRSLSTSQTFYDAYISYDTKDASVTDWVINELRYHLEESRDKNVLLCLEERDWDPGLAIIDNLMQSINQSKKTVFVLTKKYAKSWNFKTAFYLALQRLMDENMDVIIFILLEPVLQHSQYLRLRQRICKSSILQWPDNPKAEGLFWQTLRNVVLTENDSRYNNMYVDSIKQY
How it was run: as §1

human TLR9 = target: T3, human TLR9 (Homo sapiens, UniProt Q9NR96); assay: TLR9 inhibition reporter assay (HEK-Blue cells, SEAP reporter, ODN2006 stimulation); conditions: HEK-Blue cells overexpressing human TLR9, SEAP reporter, ODN2006 5 nM
T3 construct: host or cells: HEK-Blue cells (HEK293-derived reporter line)
T3 sequence (Q9NR96 26-1032): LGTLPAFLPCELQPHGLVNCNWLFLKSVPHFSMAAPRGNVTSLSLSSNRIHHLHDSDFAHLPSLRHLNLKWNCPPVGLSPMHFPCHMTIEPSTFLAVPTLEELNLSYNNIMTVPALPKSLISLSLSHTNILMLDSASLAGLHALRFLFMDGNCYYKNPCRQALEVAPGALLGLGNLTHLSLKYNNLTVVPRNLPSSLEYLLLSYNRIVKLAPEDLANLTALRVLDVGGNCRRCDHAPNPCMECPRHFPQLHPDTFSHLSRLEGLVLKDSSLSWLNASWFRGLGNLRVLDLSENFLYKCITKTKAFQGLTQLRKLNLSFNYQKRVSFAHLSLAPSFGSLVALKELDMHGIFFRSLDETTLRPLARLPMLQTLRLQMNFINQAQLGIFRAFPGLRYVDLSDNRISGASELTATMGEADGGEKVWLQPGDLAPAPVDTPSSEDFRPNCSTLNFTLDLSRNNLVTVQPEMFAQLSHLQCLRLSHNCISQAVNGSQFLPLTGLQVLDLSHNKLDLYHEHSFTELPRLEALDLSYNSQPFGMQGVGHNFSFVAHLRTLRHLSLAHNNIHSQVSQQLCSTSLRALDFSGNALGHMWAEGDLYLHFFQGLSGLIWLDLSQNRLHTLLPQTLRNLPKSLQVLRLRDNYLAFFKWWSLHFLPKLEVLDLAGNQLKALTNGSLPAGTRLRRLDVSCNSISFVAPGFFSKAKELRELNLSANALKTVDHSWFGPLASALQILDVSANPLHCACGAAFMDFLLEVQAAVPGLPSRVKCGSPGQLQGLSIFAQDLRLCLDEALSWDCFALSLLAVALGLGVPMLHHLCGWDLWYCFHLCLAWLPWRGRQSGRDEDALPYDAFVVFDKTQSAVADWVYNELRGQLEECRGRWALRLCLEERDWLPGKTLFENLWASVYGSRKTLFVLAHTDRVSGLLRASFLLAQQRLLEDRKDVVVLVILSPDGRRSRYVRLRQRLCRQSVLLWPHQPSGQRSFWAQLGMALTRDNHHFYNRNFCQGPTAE
How it was run: as §1

SMILES | IC50 (human TLR7) [nM] | IC50 (human TLR8) [nM] | IC50 (human TLR9) [nM]
CCc1c(-c2ccc3nccn3c2)[nH]c2cc(F)c(C3CCNCC3)c(F)c12 [Example 257, 6-(3-ethyl-4,6-difluoro-5-(piperidin-4-yl)-1H-indol-2-yl)imidazo[1,2-a]pyridine] | < 100 | < 100 | < 100
CNC(=O)CN1CCC(c2ccc3[nH]c(-c4ccn5nnc(C)c5c4)c(C(C)C)c3c2)CC1 [Example 319, 2-(4-(3-isopropyl-2-(3-methyl-[1,2,3]triazolo[1,5-a]pyridin-5-yl)-1H-indol-5-yl)piperidin-1-yl)-N-methylacetamide] | < 100 | < 100 | 1000 to 50000
CCc1c(-c2ccnc3[nH]ncc23)[nH]c2ccc(C3CCN(C(C)C)CC3)cc12 [Example 957, 4-(3-ethyl-5-(1-isopropylpiperidin-4-yl)-1H-indol-2-yl)-1H-pyrazolo[3,4-b]pyridine] | 100 to 1000 | < 100 | 1000 to 50000
CCc1c(-c2ccnc3[nH]ncc23)[nH]c2ccc(C3CCN(Cc4csnn4)CC3)cc12 [Example 930, 4-((4-(3-ethyl-2-(1H-pyrazolo[3,4-b]pyridin-4-yl)-1H-indol-5-yl)piperidin-1-yl)methyl)-1,2,3-thiadiazole] | 100 to 1000 | < 100 | 1000 to 50000
CCc1c(-c2ccnc3[nH]ncc23)[nH]c2ccc(C3CCN(Cc4nccs4)CC3)cc12 [Example 929, 2-((4-(3-ethyl-2-(1H-pyrazolo[3,4-b]pyridin-4-yl)-1H-indol-5-yl)piperidin-1-yl)methyl)thiazole] | 100 to 1000 | < 100 | 1000 to 50000
Cc1nn2ccc(-c3[nH]c4ccc(C5CCNCC5)cc4c3C(C)C)cc2c1F [Example 146, 3-fluoro-5-(3-isopropyl-5-(piperidin-4-yl)-1H-indol-2-yl)-2-methylpyrazolo[1,5-a]pyridine] | < 100 | 100 to 1000 | > 50000
Cc1cc(-c2[nH]c3ccc(C4CCN(CC(C)(C)O)CC4)cc3c2C(C)C)cc2cnn(C)c12 [Example 762, 1-(4-(2-(1,7-dimethyl-1H-indazol-5-yl)-3-isopropyl-1H-indol-5-yl)piperidin-1-yl)-2-methylpropan-2-ol] | 100 to 1000 | 100 to 1000 | 1000 to 50000
COc1nc(-c2[nH]c3ccc(C4CCN(CC(=O)N(C)C)CC4)cc3c2C(C)C)cn2ncnc12 [Example 292, 2-(4-(3-isopropyl-2-(8-methoxy-[1,2,4]triazolo[1,5-a]pyrazin-6-yl)-1H-indol-5-yl)piperidin-1-yl)-N,N-dimethylacetamide] | < 100 | < 100 | 1000 to 50000

Other lines, results leading:

IC50 (human TLR7) [nM] | IC50 (human TLR8) [nM] | IC50 (human TLR9) [nM] | SMILES
< 100 | < 100 | 1000 to 50000 | CC(C)c1c(-c2ccc3ncnn3n2)[nH]c2ccc(C3CCN(CC(C)(C)O)CC3)cc12 [Example 746, 1-(4-(2-([1,2,4]triazolo[1,5-b]pyridazin-6-yl)-3-isopropyl-1H-indol-5-yl)piperidin-1-yl)-2-methylpropan-2-ol]
< 100 | < 100 | 1000 to 50000 | COc1cc(-c2[nH]c3ccc(C4CCN(CC(=O)N(C)C)CC4)cc3c2C(C)C)cn2cc(C(=O)N(C)C)nc12 [Example 432, 6-(5-(1-(2-(dimethylamino)-2-oxoethyl)piperidin-4-yl)-3-isopropyl-1H-indol-2-yl)-8-methoxy-N,N-dimethylimidazo[1,2-a]pyridine-2-carboxamide]
1000 to 50000 | 100 to 1000 | 1000 to 50000 | Cc1cc(-c2[nH]c3ccc(C4CCN(Cc5ncn(C)n5)CC4)cc3c2C(C)C)cn2nncc12 [Example 881, 6-(3-isopropyl-5-(1-((1-methyl-1H-1,2,4-triazol-3-yl)methyl)piperidin-4-yl)-1H-indol-2-yl)-4-methyl-[1,2,3]triazolo[1,5-a]pyridine]
< 100 | < 100 | 1000 to 50000 | COc1cc(-c2[nH]c3ccc(C4CCNCC4)cc3c2C(C)C)cc2nc(C)nn12 [Example 155, 7-(3-isopropyl-5-(piperidin-4-yl)-1H-indol-2-yl)-5-methoxy-2-methyl-[1,2,4]triazolo [1,5-a]pyridine]
< 100 | 100 to 1000 | 1000 to 50000 | COc1cc(-c2[nH]c3ccc(C4CCN(CC(=O)N(C)C)CC4)cc3c2C(C)C)c2ccccc2n1 [Example 340, 2-(4-(3-isopropyl-2-(2-5 methoxyquinolin-4-yl)-1H-indol-5-yl)piperidin-1-yl)-N,N-dimethylacetamide]
100 to 1000 | 1000 to 50000 | < 100 | CC(C)c1c(-c2cc3c(s2)CNCC3)[nH]c2ccc(C3CCNCC3)cc12 [Example 207, 2-(3-isopropyl-5-(piperidin-4-yl)-1H-indol-2-yl)-4,5,6,7-tetrahydrothieno [2,3-c]pyridine]
1000 to 50000 | 1000 to 50000 | 100 to 1000 | Cc1c(-c2ccnc3[nH]cc(C(C)C)c23)[nH]c2ccc(C3CCNCC3)cc12 [Example 214, 3-isopropyl-4-(3-methyl-5-(piperidin-4-yl)-1H-indol-2-yl)-1H-pyrrolo[2,3-b]pyridine]
